“Also recorded” adds a separate entry of the source. Where a SMILES comes first, the peptide text is derived from it. Bridges are numbered along the chain shown (N, C = ends).
Tests used:
[1] = assay type: physicochemical; settings: pH 7.4
Procedure: Dry peptides were dissolved into PBS buffer at pH 7.4 at different initial concentrations, and were incubated for 7 days at 25° C. without stirring. Each sample was then centrifuged using a Beckman Coulter Microfuge 22R Centrifuge at 24° C. for 20 min. The relative centrifugal force used was 1.75×10^4 g. Solubility of each sample was approximated by measuring the absorbance of the corresponding supernatant at 280 nm measured using a Beckman Coulter DU 730 UV/Vis Spectrophotometer. All of the peptides contain a single Tyr, 3 Phe and a disulfide bond, thus their extinction coefficients at 280 nm are very similar. The solubility of PM and the mutant hIAPP polypeptides of the present disclosure was analyzed and compared at pH 7.4. Each peptide was incubated in buffer for 7 days at three different concentrations (100 μM, 500 μM and 1 mM) and the solution was then centrifuged. The apparent solubility was represented by the absorbance of the supernatant of each sample measured at 280 nm. […] Additionally, the supernatant of QM sample has a higher absorbance, 0.162, than that of TM-a and PM, 0.103 and 0.112 respectively (FIG. 4A). […] At 1 mM, the absorbance of the soluble fraction of TM-a, TM-b and QM were 1.23, 1.49, and 1.33 respectively, while that value of PM was only 0.354. In comparison, the absorbance of the supernatant of the 1 mM hIAPP was 0.109 (FIGS. 4A-C).

[2] = Thioflavin-T fluorescence assay of amyloid formation kinetics; assay type: physicochemical; settings: 20 mM Tris-HCl pH 7.4, 25° C., without stirring
Procedure: Each peptide was dissolved into 100% hexafluoroisoproponal (HFIP) to make a 1.6 mM stock solution. Stock solutions were filtered using […] Acrodisc syringe filter with a GHP membrane and the required amount of peptide was lyophilized overnight to remove HFIP. Dry peptide was dissolved into the appropriate buffer for the fluorescence assays. Thioflavin-T binding assays, conducted without HFIP or stirring at 25° C., were utilized to monitor amyloid formation kinetics. Fluorescence measurements were performed using a Beckman Coulter DTX 880 plate reader with a multimode detector using an excitation wavelength of 430 nm and an emission wavelength of 485 nm. Samples were prepared by dissolving dry peptide into Tris-HCl buffer and thioflavin-T solution immediately before the measurement. The final concentrations were 16 μM hIAPP or 160 μM of each analog and 32 μM thioflavin-T in 20 mM Tris-HCl (pH 7.4). After creating mutant hIAPP polypeptides of the present disclosure, applicants tested the propensity of the different analogs to form amyloid at pH 7.4 using thioflavin-T fluorescence assays. […] Amyloid formation follows a sigmoidal time course consisting of a lag phase in which few, if any, fibrils are formed, followed by a growth phase and a saturation phase in which amyloid fibrils are in equilibrium with soluble peptide.

[3] = Transmission electron microscopy (TEM) of samples at end of kinetic experiments; assay type: physicochemical; settings: aliquots at end of kinetic experiment; 16 μM hIAPP, 160 μM analogs, pH 7.4
Procedure: TEM images were collected at the Life Science Microscopy Center at the State University of New York at Stony Brook. 15 μL aliquots of the samples used for fluorescence assays were removed at the end of each kinetic experiment, blotted on a carbon-coated 200-mesh copper grid for 1 min and then negatively stained with saturated uranyl acetate for 1 min. Samples were further analyzed using TEM and CD.

[4] = Far-UV circular dichroism (CD) of aliquots at end of kinetic experiments; assay type: physicochemical; settings: aliquots at end of kinetic experiment, 25° C.
Procedure: Far-UV CD experiments were performed on an Applied Photophysics Chirascan CD spectrophotometer at 25° C. Aliquots from the kinetic experiments were removed at the end of each experiment and the spectra were recorded as the average of three repeats over a range of 190-260 nm, at 1 nm intervals. A 0.1 cm quartz cuvette was used and a background spectrum was subtracted from the data. Samples were further analyzed using TEM and CD.

Row | fibril morphology in TEM images [3] | secondary structure by CD spectrum [4] | time for amyloid formation to reach the saturation phase ([2]; 16 μM hIAPP) | absorbance of the supernatant at 280 nm (apparent solubility) [1] | Structure (SMILES) | solubility at neutral pH compared with PM / wild-type hIAPP [1] | amyloid formation monitored by thioflavin-T fluorescence ([2]; 160 μM peptide, about 140 hrs)
1 |  |  |  |  | CC(C)C[C@H](NC(=O)[C@H](CCCNC(=N)N)NC(=O)[C@H](CCC(N)=O)NC(=O)[C@@H](NC(=O)[C@H](C)NC(=O)[C@@H]1CSSC[C@H](NC(=O)[C@@H](N)CCCCN)C(=O)N[C@@H](CC(N)=O)C(=O)N[C@@H]([C@@H](C)O)C(=O)N[C@@H](C)C(=O)N[C@@H]([C@@H](C)O)C(=O)N1)[C@@H](C)O)C(=O)N[C@@H](C)C(=O)N[C@@H](CC(N)=O)C(=O)N[C@@H](Cc1ccccc1)C(=O)N[C@@H](CC(C)C)C(=O)N[C@H](C(=O)N[C@@H](CCCNC(=N)N)C(=O)N[C@@H](CO)C(=O)N[C@@H](CO)C(=O)N[C@@H](CC(N)=O)C(=O)N[C@@H](CC(N)=O)C(=O)N[C@@H](Cc1ccccc1)C(=O)NCC(=O)N[C@@H](C)C(=O)N1CCC[C@H]1C(=O)N[C@@H](CC(C)C)C(=O)N[C@@H](CO)C(=O)N[C@@H](CO)C(=O)N[C@H](C(=O)N[C@@H](CC(N)=O)C(=O)N[C@H](C(=O)NCC(=O)N[C@@H](CO)C(=O)N[C@@H](CC(N)=O)C(=O)N[C@H](C(=O)N[C@@H](Cc1ccc(O)cc1)C(N)=O)[C@@H](C)O)C(C)C)[C@@H](C)O)C(C)C [DM] (H-KCNTATCATQRLANFLVRSSNNFGAPLSSTNVGSNTY-NH2; disulfide 2-7; N-terminus assumed) | much better solubility at neutral pH than PM | 
2 | no fibrils were found |  |  |  | CC[C@H](C)[C@H](NC(=O)[C@@H]1CCCN1C(=O)CNC(=O)[C@H](Cc1ccccc1)NC(=O)[C@H](CC(N)=O)NC(=O)[C@H](CC(N)=O)NC(=O)[C@H](CO)NC(=O)[C@H](CO)NC(=O)[C@H](Cc1c[nH]cn1)NC(=O)[C@@H](NC(=O)[C@H](CC(C)C)NC(=O)[C@H](Cc1ccccc1)NC(=O)[C@H](CC(N)=O)NC(=O)[C@H](C)NC(=O)[C@H](CC(C)C)NC(=O)[C@H](CCCNC(=N)N)NC(=O)[C@H](CCC(N)=O)NC(=O)[C@@H](NC(=O)[C@H](C)NC(=O)[C@@H]1CSSC[C@H](NC(=O)[C@@H](N)CCCCN)C(=O)N[C@@H](CC(N)=O)C(=O)N[C@@H]([C@@H](C)O)C(=O)N[C@@H](C)C(=O)N[C@@H]([C@@H](C)O)C(=O)N1)[C@@H](C)O)C(C)C)C(=O)N[C@@H](CC(C)C)C(=O)N1CCC[C@H]1C(=O)N1CCC[C@H]1C(=O)N[C@H](C(=O)N[C@@H](CC(N)=O)C(=O)N[C@H](C(=O)NCC(=O)N[C@@H](CO)C(=O)N[C@@H](CC(N)=O)C(=O)N[C@H](C(=O)N[C@@H](Cc1ccc(O)cc1)C(N)=O)[C@@H](C)O)C(C)C)[C@@H](C)O [PM] |  | flat fluorescence curves; also recorded: do not form amyloid
3 | typical amyloid fibril morphology | β-sheet structure | ≤ 40 h | 0.109 | CC[C@H](C)[C@H](NC(=O)[C@H](C)NC(=O)CNC(=O)[C@H](Cc1ccccc1)NC(=O)[C@H](CC(N)=O)NC(=O)[C@H](CC(N)=O)NC(=O)[C@H](CO)NC(=O)[C@H](CO)NC(=O)[C@H](Cc1c[nH]cn1)NC(=O)[C@@H](NC(=O)[C@H](CC(C)C)NC(=O)[C@H](Cc1ccccc1)NC(=O)[C@H](CC(N)=O)NC(=O)[C@H](C)NC(=O)[C@H](CC(C)C)NC(=O)[C@H](CCCNC(=N)N)NC(=O)[C@H](CCC(N)=O)NC(=O)[C@@H](NC(=O)[C@H](C)NC(=O)[C@@H]1CSSC[C@H](NC(=O)[C@@H](N)CCCCN)C(=O)N[C@@H](CC(N)=O)C(=O)N[C@@H]([C@@H](C)O)C(=O)N[C@@H](C)C(=O)N[C@@H]([C@@H](C)O)C(=O)N1)[C@@H](C)O)C(C)C)C(=O)N[C@@H](CC(C)C)C(=O)N[C@@H](CO)C(=O)N[C@@H](CO)C(=O)N[C@H](C(=O)N[C@@H](CC(N)=O)C(=O)N[C@H](C(=O)NCC(=O)N[C@@H](CO)C(=O)N[C@@H](CC(N)=O)C(=O)N[C@H](C(=O)N[C@@H](Cc1ccc(O)cc1)C(N)=O)[C@@H](C)O)C(C)C)[C@@H](C)O [hIAPP] |  | 

Reference: US10683333B2, “Islet amyloid polypeptides with improved solubility” (The Research Foundation for The State University of New York, priority 2014, dated 2020)
